Assay results published in US8546338B2, “Self-assembling hydrogels based on dicephalic peptide amphiphiles” (Johnson & Johnson Consumer Companies, Inc., priority 2010, dated 2013).
Where a SMILES comes first, the peptide text is derived from it. Where no end group is shown, it is not given here. The star is where a group is joined. Palmitoyl = CCCCCCCCCCCCCCCC(=O)*

Legend:
Type in all cases: physicochemical
[1] = Gelation experiments: inversion test for self-supporting hydrogels; details: for Gelation (self-supporting gel on inversion), DMEM: DPA solution in water mixed 1:1 with DMEM; for Gelation (self-supporting gel on inversion), DMEM / Concentration at which gel forms, DMEM: no calcium added; for Gelation (self-supporting gel on inversion), PBS / Gelation (self-supporting gel on inversion), Water: final concentrations 1, 2 and 4 weight percent tested; for Concentration at which gel forms, DMEM: mixed with DMEM; for Gelation under all conditions tested: 2-4 wt %, water, DMEM and DMEM plus calcium; for Concentration at which gel forms, PBS / Gelation (self-supporting gel on inversion), PBS / Gelation under all conditions tested: PBS; for Gelation (self-supporting gel on inversion), Calcium added: DMEM plus 10 μl of 100 mg/cc calcium chloride solution; for Concentration at which gel forms, Calcium added: DMEM with calcium chloride added
Procedure: Inversion tests were performed to determine qualitatively under which conditions the various DPAs formed self-supporting hydrogels. The various types of DPAs were tested by dissolving them in ultrapure water (>18 MΩ resistivity) at double the desired final concentration followed by mixing in a 1:1 ratio with different liquid mediums. Gelation was deemed to have occurred if the gel supported its own weight upon inverting the vial (FIG. 3A and FIG. 3B). Gelation was tested at final concentrations of 1, 2 and 4 weight percent. We tested phosphate buffered saline (PBS), and Dulbecco's modified eagle media (DMEM) as liquid medium. Typical scale is 100 μl each of DPA solution in water and mixing medium but other scales have been tested. Finally, if no spontaneous gelation occurs, 10 μl of 100 mg/cc calcium chloride solution was added to induce gelation.

[2] = Oscillating rheology, time sweep (kinetics of formation); details: for Gel point after mixing: 2 wt % gels in DMEM
Procedure: (§1) Oscillating rheology by the parallel plates method (radius=25 mm) was performed on 400 μl gels to assess the mechanical strengths of gels. Time sweeps were performed to evaluate kinetics of formation at a constant strain rate of 1% and frequency of 1 rad/s. Strain sweeps were performed ranging from 1-100% strain in increments of 2% at a constant frequency of 1 rad/s. Cross-over of G′ and G″ was used to determine the gel point and point of breakdown. Time sweeps were initiated immediately after mixing the solutions that lead to DPA hydrogel formation. In the strain sweeps, the gels were allowed to form on the plate for 30 minutes before the measurement is initiated.
The gelation process was initiated on the plate at 25° C. by the addition of 10 μl of 100 mg/ml calcium chloride solution to a solution of the DPA in DMEM.

[3] = Oscillating rheology, strain sweep; details: 2 wt % gels in DMEM
Procedure: as §1
Strains sweeps were performed on 2 wt % Gly-Phe-Gly-Phe-Gly-Phe-Gly-Gln-Gln-Ser (SEQ ID NO: 8), Gly-Phe-Gly-Phe-Gly-Phe-Gly-Gln-Gly-Ser (SEQ ID NO: 12) and Gly-Phe-Gly-Phe-Gly-Phe-Gly-Asn-Asn-Ser (SEQ ID NO: 11) gels in DMEM (FIG. 8). Gels were allowed to form for 30 minutes before the experiment was initiated.

[4] = listed as linear peptide amphiphile analogue

Molecule | Gelation (self-supporting gel on inversion), DMEM [1] | Gelation (self-supporting gel on inversion), PBS [1] | Gelation (self-supporting gel on inversion), Water ([1]; in water) | Concentration at which gel forms, DMEM [1] [%] | Gelation (self-supporting gel on inversion), Calcium added [1] | further results
CCCCCCCCCCCCCCCC(=O)NC(C(=O)NCC(=O)N[C@@H](Cc1ccccc1)C(=O)NCC(=O)N[C@@H](Cc1ccccc1)C(=O)NCC(=O)N[C@@H](Cc1ccccc1)C(=O)NCC(=O)N[C@@H](CC(N)=O)C(=O)N[C@@H](CC(N)=O)C(=O)N[C@@H](CO)C(=O)O)C(=O)NCC(=O)N[C@@H](Cc1ccccc1)C(=O)NCC(=O)N[C@@H](Cc1ccccc1)C(=O)NCC(=O)N[C@@H](Cc1ccccc1)C(=O)NCC(=O)N[C@@H](CC(N)=O)C(=O)N[C@@H](CC(N)=O)C(=O)N[C@@H](CO)C(=O)O [Gly-Phe-Gly-Phe-Gly-Phe-Gly-Asn-Asn-Ser] | Yes, | Yes, | Yes, | 2 |  | Concentration at which gel forms, PBS [1]: 4%; Concentration at which gel forms, Water ([1]; in water): 2%; Gel point after mixing [2]: instantaneous; Rheological properties in kinetics of formation experiment, comparison ([2]; polar, non-charged solubility enhancing regions compared): highest rheological properties; Initial strength in strain sweep, comparison [3]: highest initial strength; Strain at which decline in properties starts ([3]; formed for 30 minutes): 15 % strain; Strain at which gel re-crosses the transition point (breakdown) ([3]; formed for 30 minutes): 42 % strain; Strain at which gel re-crosses the transition point (breakdown) ([3]; formed for 30 minutes, listed as Asn-Asn-Ser (SEQ ID NO: 29)): 40 % strain
CCCCCCCCCCCCCCCC(=O)NC(C(=O)NCC(=O)N[C@@H](Cc1ccccc1)C(=O)NCC(=O)N[C@@H](Cc1ccccc1)C(=O)NCC(=O)N[C@@H](Cc1ccccc1)C(=O)NCC(=O)N[C@@H](CC(N)=O)C(=O)NCC(=O)N[C@@H](CO)C(=O)O)C(=O)NCC(=O)N[C@@H](Cc1ccccc1)C(=O)NCC(=O)N[C@@H](Cc1ccccc1)C(=O)NCC(=O)N[C@@H](Cc1ccccc1)C(=O)NCC(=O)N[C@@H](CC(N)=O)C(=O)NCC(=O)N[C@@H](CO)C(=O)O [Gly-Phe-Gly-Phe-Gly-Phe-Gly-Asn-Gly-Ser] | Yes, | No | No | 2 |  | 
CCCCCCCCCCCCCCCC(=O)NC(C(=O)NCC(=O)N[C@@H](Cc1ccccc1)C(=O)NCC(=O)N[C@@H](Cc1ccccc1)C(=O)NCC(=O)N[C@@H](Cc1ccccc1)C(=O)NCC(=O)N[C@@H](CCC(N)=O)C(=O)NCC(=O)N[C@@H](CO)C(=O)O)C(=O)NCC(=O)N[C@@H](Cc1ccccc1)C(=O)NCC(=O)N[C@@H](Cc1ccccc1)C(=O)NCC(=O)N[C@@H](Cc1ccccc1)C(=O)NCC(=O)N[C@@H](CCC(N)=O)C(=O)NCC(=O)N[C@@H](CO)C(=O)O [Gly-Phe-Gly-Phe-Gly-Phe-Gly-Gln-Gly-Ser] | Yes, | Yes, | No | 2 |  | Concentration at which gel forms, PBS [1]: 2%; Gelation characteristics, qualitative comparison ([1]; compared to the SEQ ID NO: 8 DPA): formed more rapidly and appears to be stronger; Gel point after mixing [2]: instantaneous; Strain at which gel re-crosses the transition point (breakdown) ([3]; formed for 30 minutes): 99 % strain; Strain at which gel re-crosses the transition point (breakdown) ([3]; formed for 30 minutes, listed as Gln-Gly-Ser (SEQ ID NO: 30)): ~100 % strain
CCCCCCCCCCCCCCCC(=O)NC(C(=O)NCC(=O)N[C@@H](Cc1ccccc1)C(=O)NCC(=O)N[C@@H](Cc1ccccc1)C(=O)NCC(=O)N[C@@H](Cc1ccccc1)C(=O)NCC(=O)NCC(=O)N[C@@H](CC(N)=O)C(=O)N[C@@H](CO)C(=O)O)C(=O)NCC(=O)N[C@@H](Cc1ccccc1)C(=O)NCC(=O)N[C@@H](Cc1ccccc1)C(=O)NCC(=O)N[C@@H](Cc1ccccc1)C(=O)NCC(=O)NCC(=O)N[C@@H](CC(N)=O)C(=O)N[C@@H](CO)C(=O)O [Gly-Phe-Gly-Phe-Gly-Phe-Gly-Gly-Asn-Ser] | Yes, | No | No | 2 |  | 
CCCCCCCCCCCCCCCC(=O)NC(C(=O)NCC(=O)N[C@@H](Cc1ccccc1)C(=O)NCC(=O)N[C@@H](Cc1ccccc1)C(=O)NCC(=O)N[C@@H](Cc1ccccc1)C(=O)NCC(=O)NCC(=O)N[C@@H](CCC(N)=O)C(=O)N[C@@H](CO)C(=O)O)C(=O)NCC(=O)N[C@@H](Cc1ccccc1)C(=O)NCC(=O)N[C@@H](Cc1ccccc1)C(=O)NCC(=O)N[C@@H](Cc1ccccc1)C(=O)NCC(=O)NCC(=O)N[C@@H](CCC(N)=O)C(=O)N[C@@H](CO)C(=O)O [Gly-Phe-Gly-Phe-Gly-Phe-Gly-Gly-Gln-Ser] | Yes, | No | No | 2 |  | 
CCCCCCCCCCCCCCCC(=O)NC(C(=O)NCC(=O)N[C@@H](Cc1c[nH]c2ccccc12)C(=O)NCC(=O)N[C@@H](Cc1c[nH]c2ccccc12)C(=O)NCC(=O)N[C@@H](Cc1c[nH]c2ccccc12)C(=O)NCC(=O)N[C@@H](CCC(N)=O)C(=O)N[C@@H](CCC(N)=O)C(=O)N[C@@H](CO)C(=O)O)C(=O)NCC(=O)N[C@@H](Cc1c[nH]c2ccccc12)C(=O)NCC(=O)N[C@@H](Cc1c[nH]c2ccccc12)C(=O)NCC(=O)N[C@@H](Cc1c[nH]c2ccccc12)C(=O)NCC(=O)N[C@@H](CCC(N)=O)C(=O)N[C@@H](CCC(N)=O)C(=O)N[C@@H](CO)C(=O)O [Gly-Trp-Gly-Trp-Gly-Trp-Gly-Gln-Gln-Ser] | No | No | No |  | No | Gelation under all conditions tested [1]: no gelation was observed
CCCCCCCCCCCCCCCC(=O)NC(C(=O)NCC(=O)N[C@@H](Cc1ccc(O)cc1)C(=O)NCC(=O)N[C@@H](Cc1ccc(O)cc1)C(=O)NCC(=O)N[C@@H](Cc1ccc(O)cc1)C(=O)NCC(=O)N[C@@H](CCC(N)=O)C(=O)N[C@@H](CCC(N)=O)C(=O)N[C@@H](CO)C(=O)O)C(=O)NCC(=O)N[C@@H](Cc1ccc(O)cc1)C(=O)NCC(=O)N[C@@H](Cc1ccc(O)cc1)C(=O)NCC(=O)N[C@@H](Cc1ccc(O)cc1)C(=O)NCC(=O)N[C@@H](CCC(N)=O)C(=O)N[C@@H](CCC(N)=O)C(=O)N[C@@H](CO)C(=O)O [Gly-Tyr-Gly-Tyr-Gly-Tyr-Gly-Gln-Gln-Ser] | does not gel and No | does not gel and No | does not gel and No |  | does form gels and Yes | Concentration at which gel forms, Calcium added [1]: 2%
CCCCCCCCCCCCCCCC(=O)NCC(=O)N[C@@H](Cc1ccccc1)C(=O)NCC(=O)N[C@@H](Cc1ccccc1)C(=O)NCC(=O)N[C@@H](Cc1ccccc1)C(=O)NCC(=O)N[C@@H](CCC(N)=O)C(=O)N[C@@H](CCC(N)=O)C(=O)N[C@@H](CO)C(=O)O [reference compound] (Palmitoyl-GFGFGFGQQS-OH) | No | No | No |  | Yes, | Gelation (self-supporting gel on inversion), Calcium added [1, 4]: could be gelled; Concentration at which gel forms, Calcium added [1]: 2%; Gelation (self-supporting gel on inversion), DMEM [1, 4]: did not form gels; Gelation (self-supporting gel on inversion), PBS [1, 4]: did not form gels; Gelation (self-supporting gel on inversion), Water ([1]; in water, listed as linear peptide amphiphile analogue): did not form gels
GFGFGFGQQS-OH [Gly-Phe-Gly-Phe-Gly-Phe-Gly-Gln-Gln-Ser, reference compound] | No | No | No |  | No | Gelation under all conditions tested [1]: did not form any gels
